Results reported in ChEMBL document CHEMBL1151043, “The synthesis and antibacterial activity of 2-para-quarternary ammoniomethylphenyl-carbapenems” (1993).
Values after ≈ are worked out from the molar mass of the structure shown.

What was measured:
Pseudomonas [1] = assay: In vitro antibacterial activity against Pseudomonas relative to thienamycin; type: functional
Enterobacter [2] = assay: In vitro antibacterial activity against Enterobacter relative to thienamycin; type: functional
Staphylococcus aureus [3] = assay: In vitro antibacterial activity against Staphylococcus aureus (4) relative to Thienamycin (1); type: functional
Escherichia coli [4] = assay: In vitro antibacterial activity against Escherichia coli relative to thienamycin; type: functional
Serratia [5] = assay: In vitro antibacterial activity against Serratia relative to thienamycin; type: functional
Proteus [6] = assay: In vitro antibacterial activity against Proteus relative to thienamycin; type: functional, Proteus sp.
Klebsiella [7] = assay: In vitro antibacterial activity against Klebsiella relative to thienamycin; type: functional
Enterococcus [8] = assay: In vitro antibacterial activity against Enterococcus relative to thienamycin; type: functional
[9] = target: T1, Dipeptidase 1 (Sus scrofa) (UniProt P22412); assay: Susceptibility of compound towards porcine Dehydropeptidase-1 relative to imipenem as […] was calculated
T1 sequence (whole entry): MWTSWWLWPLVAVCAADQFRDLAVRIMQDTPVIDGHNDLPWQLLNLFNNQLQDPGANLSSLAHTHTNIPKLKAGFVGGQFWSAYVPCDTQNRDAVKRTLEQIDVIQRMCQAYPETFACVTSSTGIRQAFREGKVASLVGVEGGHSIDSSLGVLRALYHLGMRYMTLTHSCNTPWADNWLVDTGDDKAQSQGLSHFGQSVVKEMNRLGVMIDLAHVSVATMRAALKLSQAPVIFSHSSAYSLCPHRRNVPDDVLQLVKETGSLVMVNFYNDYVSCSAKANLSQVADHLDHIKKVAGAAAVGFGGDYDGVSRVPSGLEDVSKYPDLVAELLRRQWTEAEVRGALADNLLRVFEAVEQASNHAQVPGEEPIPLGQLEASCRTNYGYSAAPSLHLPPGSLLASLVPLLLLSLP

Proteus [10] = assay: In vitro antibacterial activity against Proteus relative to Thienamycinv; type: functional, Proteus sp.
Staphylococcus aureus [11] = assay: In vitro antibacterial activity against Staphylococcus aureus relative to thienamycin; type: functional
Enterococcus [12] = assay: Minimum inhibitory concentration required for the antibacterial activity against Enterococcus; type: functional
Pseudomonas [13] = assay: Minimum inhibitory concentration required for the antibacterial activity against Pseudomonas relative to Thienamycin (1); type: functional
Proteus [14] = assay: Minimum inhibitory concentration required for the antibacterial activity against Proteus; type: functional, Proteus sp.
Staphylococcus aureus [15] = assay: Minimum inhibitory concentration required for the antibacterial activity against Staphylococcus aureus; type: functional
Escherichia coli [16] = assay: Minimum inhibitory concentration required for the antibacterial activity against Escherichia coli; type: functional
Klebsiella [17] = assay: Minimum inhibitory concentration required for the antibacterial activity against Klebsiella; type: functional
Enterobacter [18] = assay: Minimum inhibitory concentration required for the antibacterial activity against Enterobacter; type: functional
Serratia [19] = assay: Minimum inhibitory concentration required for the antibacterial activity against Serratia; type: functional

With `CSCc1ccc[n+](Cc2ccc(C3=C(C(=O)[O-])N4C(=O)[C@H]([C@@H](C)O)[C@H]4C3)cc2)c1` the Relative potency (Pseudomonas [1]) was 0.08, the Relative potency (Enterobacter [2]) was 10.6 and the Relative potency (Staphylococcus aureus [3]) was 1.9. It also gave a Relative potency (Escherichia coli [4]) of 6.1, a Relative potency (Serratia [5]) of 29.9 and a Relative potency (Proteus [6]) of 6.5. It also gave a Relative potency (Klebsiella [7]) of 3.7, a Relative potency (Enterococcus [8]) of 19.7 and a Susceptibility [9] of 0.05.
`C[C@@H](O)[C@H]1C(=O)N2C(C(=O)O)=C(SCCNC=N)C[C@H]12.O` [IMIPENEM] was tested, and the Relative potency (Pseudomonas [1]) was 4, the Relative potency (Enterobacter [2]) was 1.8 and the Relative potency (Staphylococcus aureus [3]) was 1.8. It also gave a Relative potency (Escherichia coli [4]) of 1.6, a Relative potency (Serratia [5]) of 1.8 and a Relative potency (Proteus [6]) of 1.6. The Relative potency (Klebsiella [7]) was 1.5, the Relative potency (Enterococcus [8]) was 1.5 and the Susceptibility [9] was 0.85.
Compound `C[C@@H](O)[C@H]1C(=O)N2C(C(=O)[O-])=C(c3ccc(C[n+]4cccc(C(=O)N(C)C)c4)cc3)C[C@H]12` has a Relative potency (Pseudomonas [1]) of 0.04, a Relative potency (Enterobacter [2]) of 3.5 and a Relative potency (Staphylococcus aureus [3]) of 0.3. It also gave a Relative potency (Escherichia coli [4]) of 2.3, a Relative potency (Serratia [5]) of 4 and a Relative potency (Proteus [6]) of 4.6. It also gave a Relative potency (Klebsiella [7]) of 1.1, a Relative potency (Enterococcus [8]) of 5.7 and a Susceptibility [9] of 0.05.
`CO[C@@]1(NC(=O)Cc2cccs2)C(=O)N2C(C(=O)O)=C(COC(N)=O)CS[C@@H]21` [CEFOXITIN] was tested, and the Relative potency (Enterobacter [2]) was 0.03, the Relative potency (Staphylococcus aureus [3]) was 0.03 and the Relative potency (Escherichia coli [4]) was 0.1. It also gave a Relative potency (Serratia [5]) of 0.3, a Relative potency (Proteus [6]) of 0.6 and a Relative potency (Klebsiella [7]) of 0.04. It also gave a Relative potency (Enterococcus [8]) of 0.06.
`CSc1ccc[n+](Cc2ccc(C3=C(C(=O)[O-])N4C(=O)[C@H]([C@@H](C)O)[C@H]4C3)cc2)c1` showed a Relative potency (Pseudomonas [1]) of 0.08, a Relative potency (Enterobacter [2]) of 11.3 and a Relative potency (Staphylococcus aureus [3]) of 2.6. It also gave a Relative potency (Escherichia coli [4]) of 4.3, a Relative potency (Serratia [5]) of 19.7 and a Relative potency (Proteus [6]) of 9.2. For the same compound, the Relative potency (Klebsiella [7]) was 3.7, the Relative potency (Enterococcus [8]) was 10.6 and the Susceptibility [9] was 0.06.
With `C[C@@H](O)[C@H]1C(=O)N2C(C(=O)[O-])=C(c3ccc(C[n+]4ccc(CCS(=O)(=O)[O-])cc4)cc3)C[C@H]12.[K+]` the Relative potency (Pseudomonas [1]) was 0.04, the Relative potency (Enterobacter [2]) was 7 and the Relative potency (Staphylococcus aureus [3]) was 0.4. For the same compound, the Relative potency (Escherichia coli [4]) was 5.7, the Relative potency (Serratia [5]) was 10.6 and the Relative potency (Proteus [6]) was 17.1. For the same compound, the Relative potency (Klebsiella [7]) was 1.1, the Relative potency (Enterococcus [8]) was 4.3 and the Susceptibility [9] was 0.06.
With `C[C@@H](O)[C@H]1C(=O)N2C(C(=O)[O-])=C(c3ccc(C[n+]4cccc(CSCCC#N)c4)cc3)C[C@H]12` the Relative potency (Pseudomonas [1]) was 0.08, the Relative potency (Enterobacter [2]) was 8.6 and the Relative potency (Staphylococcus aureus [3]) was 1. The Relative potency (Escherichia coli [4]) was 8, the Relative potency (Serratia [5]) was 14.9 and the Relative potency (Proteus [6]) was 7. The Relative potency (Klebsiella [7]) was 4.6, the Relative potency (Enterococcus [8]) was 8 and the Susceptibility [9] was 0.05.
For `C[C@@H](O)[C@H]1C(=O)N2C(C(=O)[O-])=C(c3ccc(C[n+]4ccc(CN)cc4)cc3)C[C@H]12`, the Relative potency (Pseudomonas [1]) was 0.05, the Relative potency (Enterobacter [2]) was 2.6 and the Relative potency (Staphylococcus aureus [3]) was 0.5. The Relative potency (Escherichia coli [4]) was 1.7, the Relative potency (Serratia [5]) was 6.1 and the Relative potency (Proteus [6]) was 4.3. It also gave a Relative potency (Klebsiella [7]) of 0.8, a Relative potency (Enterococcus [8]) of 7 and a Susceptibility [9] of 0.04.
Work on `C[C@@H](O)[C@H]1C(=O)N2C(C(=O)O)=C(c3ccc(CN4CCOCC4)cc3)C[C@H]12` yielded a Relative potency (Pseudomonas [1]) of 0.03, a Relative potency (Proteus [10]) of 10.6 and a Relative potency (Enterobacter [2]) of 5.3. The Relative potency (Escherichia coli [4]) was 3.5, the Relative potency (Staphylococcus aureus [11]) was 0.6 and the Relative potency (Serratia [5]) was 8. The Relative potency (Klebsiella [7]) was 1.4, the Relative potency (Enterococcus [8]) was 8.6 and the Susceptibility [9] was 0.13.
With `C[C@@H](O)[C@H]1C(=O)N2C(C(=O)[O-])=C(c3ccc(C[n+]4cccc(C(=O)[O-])c4)cc3)C[C@H]12.[K+]` the Relative potency (Pseudomonas [1]) was 0.08, the Relative potency (Enterobacter [2]) was 12.1 and the Relative potency (Staphylococcus aureus [3]) was 0.6. The Relative potency (Escherichia coli [4]) was 6.1, the Relative potency (Serratia [5]) was 27.9 and the Relative potency (Proteus [6]) was 27.9. The Relative potency (Klebsiella [7]) was 2 and the Relative potency (Enterococcus [8]) was 5.3.
With `Cc1cc[n+](Cc2ccc(C3=C(C(=O)[O-])N4C(=O)[C@H]([C@@H](C)O)[C@H]4C3)cc2)cc1` the Relative potency (Pseudomonas [1]) was 0.1, the Relative potency (Enterobacter [2]) was 9.2 and the Relative potency (Staphylococcus aureus [3]) was 1.1. The Relative potency (Escherichia coli [4]) was 4.6, the Relative potency (Serratia [5]) was 22.6 and the Relative potency (Proteus [6]) was 12.1. It also gave a Relative potency (Klebsiella [7]) of 2.8, a Relative potency (Enterococcus [8]) of 14.9 and a Susceptibility [9] of 0.06.
Work on `C[C@@H](O)[C@H]1C(=O)N2C(C(=O)[O-])=C(c3ccc(C[n+]4ccc(CS(=O)(=O)[O-])cc4)cc3)C[C@H]12.[K+]` yielded a Relative potency (Pseudomonas [1]) of 0.04, a Relative potency (Enterobacter [2]) of 9.2 and a Relative potency (Staphylococcus aureus [3]) of 0.5. For the same compound, the Relative potency (Escherichia coli [4]) was 6.5, the Relative potency (Serratia [5]) was 9.8 and the Relative potency (Proteus [6]) was 9.8. It also gave a Relative potency (Klebsiella [7]) of 1.6, a Relative potency (Enterococcus [8]) of 3.5 and a Susceptibility [9] of 0.06.
Compound `C[C@@H](O)[C@H]1C(=O)N2C(C(=O)O)=C(SCCN)C[C@H]12` [THIENAMYCIN] has an MIC (Enterococcus [12]) of 3.6 µg/mL (≈ 13.2 µM), an MIC (Pseudomonas [13]) of 1.79 µg/mL (≈ 6.57 µM) and an MIC (Proteus [14]) of 1.9 µg/mL (≈ 6.98 µM). The MIC (Staphylococcus aureus [15]) was 0.03 µg/mL (≈ 0.11 µM), the MIC (Escherichia coli [16]) was 0.37 µg/mL (≈ 1.36 µM) and the MIC (Klebsiella [17]) was 0.88 µg/mL (≈ 3.23 µM). The MIC (Enterobacter [18]) was 0.67 µg/mL (≈ 2.46 µM), the MIC (Serratia [19]) was 0.93 µg/mL (≈ 3.42 µM) and the Susceptibility [9] was 1.
